Data from the supplement of paper PMC5579334.
± gives the standard deviation of the averaged measurements.

Columns and labels:
HS-PSS [1] = assay: drug sensitivity score (DSS, CellTiter-Glo viability, 72 h) (DSS (dimensionless)); higher = more sensitive; extreme values may be limits of the assay
Method in brief: (§1)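 For this screen, 384-well plates were preprinted with each compound at five concentrations in 10-fold steps and seeded with MPNST cell lines or primary human Schwann cells at 750–1000 cells per well. Incubation lasted 72 h at 37 °C, 5% CO2, and CellTiter-Glo ATP luminescence, scaled between vehicle and positive-control wells and averaged over duplicates where available, served as viability. Logistic fits with four parameters were applied. Relative IC50 (censored at the top concentration) and drug sensitivity score derive from these fits, and percent inhibition is at the top concentration.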

HS-Sch-2 [2] = assay: as above
Method in brief: as §1

[3] = system: HSC1 (primary human Schwann cells); assay: as above
Method in brief: as §1

[4] = system: HSC2 (primary human Schwann cells); assay: as above
Method in brief: as §1

S1507-2 [5] = assay: as above
Method in brief: as §1

S462 [6] = assay: as above
Method in brief: as §1

ST8814 [7] = assay: as above
Method in brief: as §1

STS26T [8] = assay: as above
Method in brief: as §1

YST-1 [9] = assay: as above
Method in brief: as §1

HS-PSS [10] = assay: drug sensitivity score (DSS, CellTox-Green cytotoxicity, 72 h) (DSS (dimensionless)); higher = more cytotoxic; extreme values may be limits of the assay
Method in brief: (§2)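 MPNST cell lines and primary human Schwann cells were grown for 72 h at 37 °C in 384-well plates containing five 10-fold compound dilutions. CellTox-Green, added before seeding at a final 1:1000 dilution, gave fluorescence from DNA released by disrupted cells, and signals were scaled to vehicle and positive-control wells. Curves were fitted with a four-parameter logistic model. Drug sensitivity score and relative IC50 come from these fits, with IC50 censored at the top concentration.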

[11] = system: HSC1 (primary human Schwann cells); assay: as above
Method in brief: as §2

[12] = system: HSC2 (primary human Schwann cells); assay: as above
Method in brief: as §2

S1507-2 [13] = assay: as above
Method in brief: as §2

ST8814 [14] = assay: as above
Method in brief: as §2

STS26T [15] = assay: as above
Method in brief: as §2

HS-PSS [16] = assay: % inhibition of CellTiter-Glo viability at highest tested concentration (72 h), relative to DMSO and benzethonium chloride controls; higher = more inhibition
Method in brief: as §1

HS-Sch-2 [17] = assay: as above
Method in brief: as §1

[18] = system: HSC1 (primary human Schwann cells); assay: as above
Method in brief: as §1

[19] = system: HSC2 (primary human Schwann cells); assay: as above
Method in brief: as §1

S1507-2 [20] = assay: as above
Method in brief: as §1

S462 [21] = assay: as above
Method in brief: as §1

ST8814 [22] = assay: as above
Method in brief: as §1

STS26T [23] = assay: as above
Method in brief: as §1

YST-1 [24] = assay: as above
Method in brief: as §1

Compound | drug sensitivity score (HS-PSS [1]) | drug sensitivity score (HS-Sch-2 [2]) | drug sensitivity score [3] | drug sensitivity score [4] | drug sensitivity score (S1507-2 [5]) | drug sensitivity score (S462 [6]) | drug sensitivity score (ST8814 [7]) | drug sensitivity score (STS26T [8]) | drug sensitivity score (YST-1 [9]) | drug sensitivity score (HS-PSS [10]) | drug sensitivity score [11] | drug sensitivity score [12] | drug sensitivity score (S1507-2 [13]) | drug sensitivity score (ST8814 [14]) | drug sensitivity score (STS26T [15]) | % inhibition (HS-PSS [16]) [%] | % inhibition (HS-Sch-2 [17]) [%] | % inhibition [18] [%] | % inhibition [19] [%] | % inhibition (S1507-2 [20]) [%] | % inhibition (S462 [21]) [%] | % inhibition (ST8814 [22]) [%] | % inhibition (STS26T [23]) [%] | % inhibition (YST-1 [24]) [%]
C=CCn1c(=O)c2cnc(Nc3ccc(N4CCN(C)CC4)cc3)nc2n1-c1cccc(C(C)(C)O)n1 [MK1775] (max concentration tested 10000 nM) | 6.59 | 23.8 | 14.4 | 17 | 16.3 ± 1.6 | 24.5 ± 0.65 | 15.8 | 16.4 | 14.7 | 0.11 | 5.21 | 9.17 | 16.1 ± 1.9 | 14.6 | 20.3 | 49.6 | 88.4 | 67.6 | 85.9 | 83.3 ± 2 | 107.2 ± 0.38 | 89.8 | 96.8 | 82.5
CCOc1cc2ncc(C#N)c(Nc3ccc(OCc4ccccn4)c(Cl)c3)c2cc1NC(=O)/C=C/CN(C)C [Neratinib] (max concentration tested 1000 nM) | 6.05 | 5.51 | 4.77 | 5.85 | 4 ± 1.6 | 5.12 ± 0.93 | 3.74 | 3.09 | 2.34 | 0 | 0 | 0 | 0 | 0 | 0 | 65.7 | 65.3 | 70.6 | 75.8 | 49.1 ± 15 | 64.8 ± 7.9 | 40.5 | 38.6 | 46.7
Nc1nccc(-c2c(-c3ccc(F)cc3)ncn2C2CCCCC2)n1 (max concentration tested 10000 nM) | 0.55 | 0.99 | 0 | 0 | 0 | 0 | 0 | 0 | 3.26 | 0 | 0 | 0 | 0 | 0 | 0 | 21.5 | 29.1 | 9.97 | -0.333 | 2.64 ± 7.6 | -4.31 ± 12 | 5.9 | 1.02 | 33.7
O=NN(CCCl)C(=O)NC1CCCCC1 [Lomustine] (max concentration tested 10000 nM) | 0 | 0 | 0 | 0 | 0 | 0 | 0 | 0 | 0 | 0 | 0 | 0 | 0 | 0 | 0 | -0.39 | -15 | -0.952 | -3.35 | -7.84 ± 0.87 | -9.57 ± 4 | -8.13 | 0.864 | 0.78
CN1CCN(CCOc2cc(OC3CCOCC3)c3c(Nc4c(Cl)ccc5c4OCO5)ncnc3c2)CC1 [Saracatinib] (max concentration tested 10000 nM) | 6.08 | 3.07 | 7.06 | 3.21 | 7.04 ± 1.5 | 3.91 ± 0.7 | 5.63 | 5.09 | 0.09 | 1.13 | 0 | 6.91 | 9.49 ± 1.6 | 5.67 | 1.58 | 67.5 | 51.7 | 50.3 | 37.1 | 74.8 ± 2.1 | 36.2 ± 0.27 | 55.2 | 50.2 | 14.6
COc1cc2ncnc(Nc3ccc(F)c(Cl)c3)c2cc1NC(=O)/C=C/CN1CCCCC1 [Dacomitinib] (max concentration tested 1000 nM) | 3 | 2.81 | 0.027 | 0.456 | 1.41 ± 1.5 | 0.0398 ± 0.056 | 0.993 | 0.0007 | 0 | 1.85 | 0 | 0 | 1.18 ± 1.6 | 0 | 0 | 35.4 | 32.6 | 12.1 | 19.3 | 24.7 ± 9.1 | 7.49 ± 5.3 | 16.4 | 13.6 | 9.37
CC(C)(C)Cn1c(N)nc2ccc(-c3[nH]c(C(C)(C)C)nc3-c3ccc(F)cc3)nc21 [Ralimetinib] (max concentration tested 10000 nM) | 1.76 | 2.8 | 2.2 | 3.4 | 2.27 ± 0.73 | 0.51 ± 0.72 | 2.03 | 1.33 | 7.83 | 0 | 0 | 0 | 0 | 0 | 0 | 45.7 | 54.9 | 34.9 | 34 | 33.8 ± 6.8 | 13.4 ± 7.5 | 28.2 | 28.7 | 41.8
Nc1ccccc1NC(=O)c1ccc(CNc2nccc(-c3cccnc3)n2)cc1 [Mocetinostat] (max concentration tested 10000 nM) | 6.61 | 9.89 | 9.63 | 10.5 | 8.06 ± 0.65 | 15.4 ± 0.54 | 8.59 | 8.68 | 15 | 4.26 | 4.7 | 6.39 | 5.36 ± 2.5 | 5.01 | 6.23 | 88 | 101 | 83.9 | 87.2 | 95.338 ± 0.088 | 94.19 ± 0.4 | 93.5 | 87.5 | 100
Cc1cc(Nc2nc(N[C@@H](C)c3ncc(F)cn3)ncc2Cl)[nH]n1 [AZD1480] (max concentration tested 1000 nM) | 0.78 | 0 | 2.84 | 0.934 | 0.0872 ± 0.12 | 1.64 ± 0.2 | 0.0148 | 0.3 | 0.54 | 0 | 0 | 0.662 | 5.43 ± 7.7 | 0 | 0 | 20.3 | 2.41 | 37.6 | 17 | 11.6 ± 8 | 26.4 ± 3.4 | 10.4 | 18.1 | 20.3
O=P1(NCCCl)OCCCN1CCCl (stereo unspecified) [Ifosfamide] (max concentration tested 10000 nM) | 0 | 0 | 0 | 0 | 0.228 ± 0.32 | 0 | 0 | 0 | 0.08 | 0 | 0 | 0 | 0 | 0 | 0 | -0.44 | -4.64 | 0.661 | -1.49 | 4.66 ± 16 | 2.94 ± 0.79 | 1.12 | -1.13 | 11.6
c1ccc2c(CCNc3ccc(Nc4ccncc4)cc3)c[nH]c2c1 [Serdemetan] (max concentration tested 10000 nM) | 6.09 | 4.57 | 6.36 | 7.15 | 8.56 ± 0.85 | 10.8 ± 0.46 | 12.2 | 5.45 | 11.6 | 3.27 | 0.111 | 0 | 4.77 ± 0.64 | 12.5 | 3.19 | 95.3 | 96.2 | 65.5 | 70.3 | 93.39 ± 0.52 | 100.5 ± 0.77 | 99.5 | 78.5 | 92.5
CNC(=O)c1cc(Oc2ccc(NC(=O)Nc3cc(C(C)(C)C)nn3-c3ccc4ncccc4c3)c(F)c2)ccn1 [Rebastinib] (max concentration tested 1000 nM) | 0 | 0 | 0 | 0 | 0 | 0 | 0 | 0 | 0 | 0 | 0 | 0 | 0 | 0 | 0 | -1.59 | -12.3 | 0.317 | -5.07 | -4.17 ± 6.4 | -0.0982 ± 1.4 | -2.38 | -1.27 | 0.76
CC[C@@H]1C(=O)N(C)c2cnc(Nc3ccc(C(=O)N[C@H]4CC[C@H](N5CCN(CC6CC6)CC5)CC4)cc3OC)nc2N1C(C)C [Volasertib] (max concentration tested 1000 nM) | 8.74 | 19.5 | 10.6 | 14.8 | 17.138 ± 0.0087 | 21.2 ± 0.31 | 14.4 | 23.5 | 15 | 0 | 12.8 | 19.2 | 13.2 ± 1.2 | 13.9 | 30.8 | 59.5 | 59.3 | 53 | 79.3 | 79.2 ± 8.9 | 95.95 ± 0.59 | 80.6 | 78.3 | 55.3
CCCc1cc(C)[nH]c(=O)c1CNC(=O)c1cc(-c2ccnc(N3CCN(C)CC3)c2)cc2c1cnn2C(C)C [GSK343] (max concentration tested 10000 nM) | 5.59 | 4.46 | 4.34 | 2.64 | 5.498 ± 0.026 | 2.58 ± 1.2 | 5.22 | 3.88 | 1.05 | 5.71 | 0 | 0 | 6.1 ± 1.5 | 5.69 | 6.48 | 94.3 | 95.9 | 47 | 34.4 | 86 ± 10 | 49.6 ± 14 | 94.4 | 84.1 | 33.9
